Assay results as given in ChEMBL document CHEMBL3608269, “Triazole-Linked Glycolipids Enhance the Susceptibility of MRSA to β-Lactam Antibiotics” (ACS Med Chem Lett, 2015).
Converted amounts (≈) assume the structure as drawn. The source made the active and inactive calls. The rule behind the calls is not given here.

How the values were obtained:
Staphylococcus aureus [1] = test: Antibacterial activity against methicillin-resistant Staphylococcus aureus ATCC 43300 after 20 to 24 hrs by CLSI method; assay type: functional
Staphylococcus aureus [2] = test: Potentiation of oxacillin-mediated antibacterial activity against methicillin-resistant Staphylococcus aureus ATCC 43300 at 32 ug/ml after 20 to 24 hrs by CLSI method; assay type: functional
Staphylococcus aureus [3] = test: Potentiation of oxacillin-mediated antibacterial activity against methicillin-resistant Staphylococcus aureus ATCC 43300 assessed as decrease in oxacillin MIC at 32 ug/ml after 20 to 24 hrs by CLSI method relative to control; assay type: functional
HEK293 = test: Cytotoxicity against HEK293 cells assessed as cell viability at 8 to 128 ug/ml by MTS assay; assay type: cell-based; settings: human
MEF = test: Cytotoxicity against MEF assessed as cell viability at 8 to 128 ug/ml by MTS assay; assay type: cell-based; settings: mouse
Staphylococcus aureus [4] = test: Potentiation of oxacillin-mediated antibacterial activity against methicillin-resistant Staphylococcus aureus ATCC 43300 assessed as growth inhibition at 32 ug/ml after 24 hrs by epsilometer test; assay type: functional, organism-based
Staphylococcus aureus [5] = test: Antibacterial activity against methicillin-resistant Staphylococcus aureus ATCC 43300 assessed as growth inhibition at 32 ug/ml measured up to 24 hrs by time kill assay; assay type: functional, organism-based
Staphylococcus aureus [6] = test: Potentiation of oxacillin-mediated antibacterial activity against methicillin-resistant Staphylococcus aureus ATCC 43300 assessed as growth inhibition at 32 ug/ml measured within 6 hrs by time kill assay; assay type: functional, organism-based
Staphylococcus aureus [7] = test: Potentiation of carbenicillin-mediated antibacterial activity against methicillin-resistant Staphylococcus aureus ATCC 43300 assessed as decrease in carbenicillin MIC at 32 ug/ml by checkerboard method relative to control; assay type: functional
Staphylococcus aureus [8] = test: Potentiation of oxacillin-mediated antibacterial activity against methicillin-resistant Staphylococcus aureus ATCC 43300 assessed as decrease in oxacillin MIC at 32 ug/ml by checkerboard method relative to control; assay type: functional
Staphylococcus aureus [9] = test: Potentiation of cephalothin-mediated antibacterial activity against methicillin-resistant Staphylococcus aureus ATCC 43300 assessed as decrease in cephalothin MIC at 32 ug/ml by checkerboard method relative to control; assay type: functional
Staphylococcus aureus [10] = test: Potentiation of cephamandole-mediated antibacterial activity against methicillin-resistant Staphylococcus aureus ATCC 43300 assessed as decrease in cephamandole MIC at 32 ug/ml by checkerboard method relative to control; assay type: functional
Staphylococcus aureus [11] = test: Potentiation of cefotiam-mediated antibacterial activity against methicillin-resistant Staphylococcus aureus ATCC 43300 assessed as decrease in cefotiam MIC at 32 ug/ml by checkerboard method relative to control; assay type: functional
Staphylococcus aureus [12] = test: Potentiation of cefaclor-mediated antibacterial activity against methicillin-resistant Staphylococcus aureus ATCC 43300 assessed as decrease in cefaclor MIC at 32 ug/ml by checkerboard method relative to control; assay type: functional
Staphylococcus aureus [13] = test: Potentiation of ceftriaxone mediated antibacterial activity against methicillin-resistant Staphylococcus aureus ATCC 43300 assessed as decrease in ceftriaxone MIC at 32 ug/ml by checkerboard method relative to control; assay type: functional
Staphylococcus aureus [14] = test: Potentiation of ceftazidime mediated antibacterial activity against methicillin-resistant Staphylococcus aureus ATCC 43300 assessed as decrease in ceftazidime MIC at 32 ug/ml by checkerboard method relative to control; assay type: functional
Staphylococcus aureus [15] = test: Potentiation of cefotaxime mediated antibacterial activity against methicillin-resistant Staphylococcus aureus ATCC 43300 assessed as decrease in cefotaxime MIC at 32 ug/ml by checkerboard method relative to control; assay type: functional
Staphylococcus aureus [16] = test: Downregulation of mecA mRNA expression in methicillin-resistant Staphylococcus aureus ATCC 43300 at 32 ug/ml after 4 hrs by RT-PCR analysis; assay type: functional, organism-based
Staphylococcus aureus [17] = test: Antibacterial activity against methicillin-resistant Staphylococcus aureus ATCC 43300 assessed as change in bacterial surface at 32 ug/ml after 4 hrs by scanning electron microscopic analysis; assay type: functional, organism-based
Staphylococcus aureus [18] = test: Potentiation of oxacillin-mediated antibacterial activity against methicillin-resistant Staphylococcus aureus ATCC 43300 assessed as appearance of rougher bacterial surface at 32 ug/ml after 4 hrs by scanning electron microscopic analysis; assay type: functional, organism-based
Staphylococcus aureus [19] = test: Potentiation of oxacillin-mediated antibacterial activity against methicillin-resistant Staphylococcus aureus R36 clinical isolate at 32 ug/ml after 20 to 24 hrs by CLSI method; assay type: functional
Staphylococcus aureus [20] = test: Potentiation of oxacillin-mediated antibacterial activity against methicillin-resistant Staphylococcus aureus R49 clinical isolate at 16 ug/ml after 20 to 24 hrs by CLSI method; assay type: functional
Staphylococcus aureus [21] = test: Potentiation of oxacillin-mediated antibacterial activity against methicillin-resistant Staphylococcus aureus R50 clinical isolate at 16 ug/ml after 20 to 24 hrs by CLSI method; assay type: functional
Staphylococcus aureus [22] = test: Potentiation of oxacillin-mediated antibacterial activity against methicillin-resistant Staphylococcus aureus R53 clinical isolate at 16 ug/ml after 20 to 24 hrs by CLSI method; assay type: functional
Staphylococcus aureus [23] = test: Potentiation of oxacillin-mediated antibacterial activity against methicillin-resistant Staphylococcus aureus R306 clinical isolate at 32 ug/ml after 20 to 24 hrs by CLSI method; assay type: functional
Staphylococcus aureus [24] = test: Potentiation of oxacillin-mediated antibacterial activity against methicillin-resistant Staphylococcus aureus R308 clinical isolate at 32 ug/ml after 20 to 24 hrs by CLSI method; assay type: functional
Staphylococcus aureus [25] = test: Potentiation of oxacillin-mediated antibacterial activity against methicillin-resistant Staphylococcus aureus R313 clinical isolate at 32 ug/ml after 20 to 24 hrs by CLSI method; assay type: functional
Staphylococcus aureus [26] = test: Potentiation of oxacillin-mediated antibacterial activity against methicillin-resistant Staphylococcus aureus R15 clinical isolate assessed as decrease in oxacillin MIC at 32 ug/ml after 20 to 24 hrs by CLSI method relative to control; assay type: functional
Staphylococcus aureus [27] = test: Potentiation of oxacillin-mediated antibacterial activity against methicillin-resistant Staphylococcus aureus R16 clinical isolate assessed as decrease in oxacillin MIC at 32 ug/ml after 20 to 24 hrs by CLSI method relative to control; assay type: functional
Staphylococcus aureus [28] = test: Potentiation of oxacillin-mediated antibacterial activity against methicillin-resistant Staphylococcus aureus R36 clinical isolate assessed as decrease in oxacillin MIC at 32 ug/ml after 20 to 24 hrs by CLSI method relative to control; assay type: functional
Staphylococcus aureus [29] = test: Potentiation of oxacillin-mediated antibacterial activity against methicillin-resistant Staphylococcus aureus R302 clinical isolate assessed as decrease in oxacillin MIC at 32 ug/ml after 20 to 24 hrs by CLSI method relative to control; assay type: functional
Staphylococcus aureus [30] = test: Potentiation of oxacillin-mediated antibacterial activity against methicillin-resistant Staphylococcus aureus R306 clinical isolate assessed as decrease in oxacillin MIC at 32 ug/ml after 20 to 24 hrs by CLSI method relative to control; assay type: functional
Staphylococcus aureus [31] = test: Potentiation of oxacillin-mediated antibacterial activity against methicillin-resistant Staphylococcus aureus R308 clinical isolate assessed as decrease in oxacillin MIC at 32 ug/ml after 20 to 24 hrs by CLSI method relative to control; assay type: functional
Staphylococcus aureus [32] = test: Potentiation of oxacillin-mediated antibacterial activity against methicillin-resistant Staphylococcus aureus R314 clinical isolate assessed as decrease in oxacillin MIC at 32 ug/ml after 20 to 24 hrs by CLSI method relative to control; assay type: functional

In the case of `CCCCCCCCCCCCOCc1cn([C@@H]2O[C@H](CO)[C@@H](O)[C@H](O)[C@H]2O)nn1`, the MIC (Staphylococcus aureus [1]) is reported as 256 µg/mL (≈ 596 µM), the MIC (Staphylococcus aureus [2]) is reported as 1 µg/mL and the “fold change (FC)” value (Staphylococcus aureus [3]) is reported as 128. For the same compound, the Activity (HEK293) was “Non-toxic”, the Activity (MEF) was “Non-toxic” and the “growth inhibition (GI)” value (Staphylococcus aureus [4]) was “Active”. For the same compound, the “growth inhibition (GI)” value (Staphylococcus aureus [5]) was “inactive”, the “growth inhibition (GI)” value (Staphylococcus aureus [6]) was “Active” and the “fold change (FC)” value (Staphylococcus aureus [7]) was “<=256”. The “fold change (FC)” value (Staphylococcus aureus [8]) was “<=256”, the “fold change (FC)” value (Staphylococcus aureus [9]) was “<=256” and the “fold change (FC)” value (Staphylococcus aureus [10]) was “<=256”. For the same compound, the “fold change (FC)” value (Staphylococcus aureus [11]) was “<=256”, the “fold change (FC)” value (Staphylococcus aureus [12]) was “<=256” and the “fold change (FC)” value (Staphylococcus aureus [13]) was “<=256”. The “fold change (FC)” value (Staphylococcus aureus [14]) was “<=256”, the “fold change (FC)” value (Staphylococcus aureus [15]) was “<=256” and the Activity (Staphylococcus aureus [16]) was “Active”. For the same compound, the Activity (Staphylococcus aureus [17]) was “inactive”, the Activity (Staphylococcus aureus [18]) was “Active” and the MIC (Staphylococcus aureus [19]) was 8 µg/mL. The MIC (Staphylococcus aureus [20]) was < 1 µg/mL, the MIC (Staphylococcus aureus [21]) was < 1 µg/mL and the MIC (Staphylococcus aureus [22]) was < 1 µg/mL. It also gave an MIC (Staphylococcus aureus [23]) of 32 µg/mL, an MIC (Staphylococcus aureus [24]) of 256 µg/mL and an MIC (Staphylococcus aureus [25]) of 8 µg/mL. For the same compound, the MIC (Staphylococcus aureus [26]) was 2 µg/mL, the MIC (Staphylococcus aureus [27]) was 4 µg/mL and the MIC (Staphylococcus aureus [28]) was 8 µg/mL. The MIC (Staphylococcus aureus [29]) was 4 µg/mL, the MIC (Staphylococcus aureus [30]) was 16 µg/mL and the MIC (Staphylococcus aureus [31]) was 4 µg/mL. The MIC (Staphylococcus aureus [32]) was 32 µg/mL.
